In patent US20250066376A1, “OPIOID RECEPTOR ANTAGONIST PRODRUGS” (Nirsum Laboratories, Inc., priority 2024, published 2025):

Test: Solubility of naloxone and naltrexone prodrug compounds
Format: physicochemical
Conditions: for Solubility in water: lower limit of aqueous solubility; for Solubility in cottonseed oil / Solubility in miglyol 812N / Solubility in sesame oil: solubility study in oil excipients at 50 mg/ml (base equivalents)
Text: Example 12: Solubility of Naloxone and Naltrexone Prodrug Compounds
Table 12 and Table 13 report the solubility data for the naloxone and naltrexone prodrug compounds, respectively.

SMILES | Solubility in water | Solubility in cottonseed oil (naloxone prodrugs (Table 12)) | Solubility in miglyol 812N (naloxone prodrugs (Table 12)) | Solubility in sesame oil (naloxone prodrugs (Table 12)) | Solubility in cottonseed oil (naltrexone prodrugs (Table 13)) | Solubility in miglyol 812N (naltrexone prodrugs (Table 13)) | Solubility in sesame oil (naltrexone prodrugs (Table 13))
C=CCN1CC[C@]23c4c5ccc(OCOC(=O)CCCCC)c4O[C@H]2C(=O)CC[C@@]3(O)[C@H]1C5 [III-1, [(3R,4aS,7aR,12bS)-3-allyl-4a-hydroxy-7-oxo-2,4,5,6,7a,13-hexahydro-1H-4,12-methanobenzofuro[3,2-e]isoquinoline-9-yl]oxymethyl hexanoate] | Solubility in water: <0.001 mg/mL | In cottonseed oil: >50.03 mg/ml | In miglyol 812N: <50.53 mg/ml | In sesame oil: >50.01 mg/ml |  |  | 
C=CCN1CC[C@]23c4c5ccc(OCOC(=O)CCCCC)c4O[C@H]2C(=O)CC[C@@]3(O)[C@H]1C5 [III-2, [(3R,4aS,7aR,12bS)-3-allyl-4a-hydroxy-7-oxo-2,4,5,6,7a,13-hexahydro-1H-4,12-methanobenzofuro[3,2-e]isoquinoline-9-yl]oxymethyl hexanoate] | Solubility in water: <0.001 mg/mL | In cottonseed oil: >50.48 mg/ml | In miglyol 812N: <50.28 mg/ml | In sesame oil: <50.44 mg/ml |  |  | 
CCCCOC(=O)OCOc1ccc2c3c1O[C@H]1C(=O)CC[C@@]4(O)[C@@H](C2)N(CC2CC2)CC[C@]314 [IV-4, [(3R,4aS,7aR,12bS)-3-(cyclopropylmethyl)-4a-hydroxy-7-oxo-2,4,5,6,7a,13-hexahydro-1H-4,12-methanobenzofuro[3,2-e]isoquinoline-9-yl]oxymethyl butyl carbonate] | Solubility in water: <0.001 mg/mL |  |  |  | In cottonseed oil: <50.12 mg/mL | In miglyol 812N: <50.41 mg/mL | In sesame oil: <50.07 mg/mL
CCCCCCOC(=O)OCOc1ccc2c3c1O[C@H]1C(=O)CC[C@@]4(O)[C@@H](C2)N(CC2CC2)CC[C@]314 [IV-5, [(3R,4aS,7aR,12bS)-3-(cyclopropylmethyl)-4a-hydroxy-7-oxo-2,4,5,6,7a,13-hexahydro-1H-4,12-methanobenzofuro[3,2-e]isoquinoline-9-yl]oxymethyl hexyl carbonate] | Solubility in water: <0.001 mg/mL |  |  |  | In cottonseed oil: <50.19 mg/mL | In miglyol 812N: <50.24 mg/mL | In sesame oil: >50.31 mg/mL
CCCCCCCCOC(=O)OCOc1ccc2c3c1O[C@H]1C(=O)CC[C@@]4(O)[C@@H](C2)N(CC2CC2)CC[C@]314 [IV-6, [(3R,4aS,7aR,12bS)-3-(cyclopropylmethyl)-4a-hydroxy-7-oxo-2,4,5,6,7a,13-hexahydro-1H-4,12-methanobenzofuro[3,2-e]isoquinoline-9-yl]oxymethyl octyl carbonate] | Solubility in water: <0.001 mg/mL |  |  |  | In cottonseed oil: >50.28 mg/mL | In miglyol 812N: >50.11 mg/mL | In sesame oil: >50.43 mg/mL
